Experimental data: the NIST ThermoML archive (doi:10.1016/j.fluid.2005.06.028)
Numbers after ± are expanded uncertainties.

Experiment: Solid-liquid equilibrium temperature

SMILES | Solid-liquid equilibrium temperature (100 kPa, Crystal) | Solid-liquid equilibrium temperature (20000 kPa, Crystal) | Solid-liquid equilibrium temperature (40000 kPa, Crystal) | Solid-liquid equilibrium temperature (60000 kPa, Crystal) | Solid-liquid equilibrium temperature (80000 kPa, Crystal) | Solid-liquid equilibrium temperature (100000 kPa, Crystal) | Solid-liquid equilibrium temperature (100 kPa, Crystal 1) | Solid-liquid equilibrium temperature (20000 kPa, Crystal 1) | Solid-liquid equilibrium temperature (40000 kPa, Crystal 1) | Solid-liquid equilibrium temperature (60000 kPa, Crystal 1) | Solid-liquid equilibrium temperature (80000 kPa, Crystal 1) | Solid-liquid equilibrium temperature (100000 kPa, Crystal 1)
CCCCCCCCCCCCCCC [pentadecane] | 283.2 ± 0.9 K | 287.8 ± 0.9 K | 291.9 ± 0.9 K | 296.2 ± 0.9 K | 300.1 ± 0.9 K | 303.9 ± 0.9 K | – | – | – | – | – | –
CCCCCCCCCCCCCCCC [hexadecane] | – | – | – | – | – | – | 291.5 ± 0.9 K | 296 ± 0.9 K | 300.4 ± 0.9 K | 304.8 ± 0.9 K | 309.7 ± 0.9 K | 313.5 ± 0.9 K
CCCCCCCCCCCCCC [tetradecane] | 279.2 ± 0.9 K | 284.2 ± 0.9 K | 289.1 ± 0.9 K | 293.8 ± 0.9 K | 297.9 ± 0.9 K | 301.7 ± 0.9 K | – | – | – | – | – | –
